Data: ChEMBL document CHEMBL3885881, “DrugMatrix”

Species on record: Rattus norvegicus
Test: DrugMatrix - Regimen: Daily Repeat
Assay type: toxicity, organism-based, Sprague-Dawley
Parameters: regimen Daily Repeat, gender Male, age 6-8 weeks
Settings: in vivo, po, route oral GAVAGE, vehicle .5 % CMC; for BASOPHIL / EOSINOPHIL / ERYTHROCYTE COUNT / HEMATOCRIT / HEMOGLOBIN / LEUKOCYTE COUNT / LYMPHOCYTE / MEAN CORPUSCULAR HEMOGLOBIN / MEAN CORPUSCULAR HEMOGLOBIN CONCENTRATION / MEAN CORPUSCULAR VOLUME / MONOCYTE / NEUTROPHIL / PLATELET COUNT: tissue Blood; for ALANINE AMINOTRANSFERASE / ALBUMIN / ALKALINE PHOSPHATASE / ASPARTATE AMINOTRANSFERASE / BLOOD UREA NITROGEN / CHLORIDE / CHOLESTEROL / CREATINE PHOSPHOKINASE / CREATININE / GLUCOSE / PHOSPHORUS / POTASSIUM / SODIUM / TOTAL BILIRUBIN / TOTAL PROTEIN: tissue Plasma
[1] = 0 mg/kg, 72 h, dose level Control, time 3 day
[2] = 0 mg/kg, 120 h, dose level Control, time 5 day
[3] = 21 mg/kg, 72 h, dose level Low, time 3 day
[4] = 21 mg/kg, 120 h, dose level Low, time 5 day

Cc1onc(-c2ccccc2)c1-c1ccc(S(N)(=O)=O)cc1 [VALDECOXIB] was tested, and the BASOPHIL [1] was 0.68%, the EOSINOPHIL [1] was 0.46% and the “ERYTHROCYTE COUNT” value [1] was 7.15 x10E6/uL. The HEMATOCRIT [1] was 45.44%, the HEMOGLOBIN [1] was 14.1 G/DL and the “LEUKOCYTE COUNT” value [1] was 9.78 x10E3/uL. The LYMPHOCYTE [1] was 84.44%, the “MEAN CORPUSCULAR HEMOGLOBIN” value [1] was 19.72 pg and the “MEAN CORPUSCULAR HEMOGLOBIN CONCENTRATION” value [1] was 31 G/DL. The “MEAN CORPUSCULAR VOLUME” value [1] was 63.66 fL, the MONOCYTE [1] was 2.14% and the NEUTROPHIL [1] was 11.16%. The “PLATELET COUNT” value [1] was 1378.2 x10E3/uL, the “ALANINE AMINOTRANSFERASE” value [1] was 42.33 u/L and the ALBUMIN [1] was 3.8 G/DL. The “ALKALINE PHOSPHATASE” value [1] was 388.17 u/L, the “ASPARTATE AMINOTRANSFERASE” value [1] was 68 u/L and the “BLOOD UREA NITROGEN” value [1] was 16.17 mg/dL. For the same molecule, the CHLORIDE [1] was 96.67 MEQ/L, the CHOLESTEROL [1] was 71 mg/dL and the “CREATINE PHOSPHOKINASE” value [1] was 156.17 u/L. It also gave a CREATININE [1] of 0.57 mg/dL, a GLUCOSE [1] of 193.67 mg/dL and a PHOSPHORUS [1] of 11.43 mg/dL. For the same molecule, the POTASSIUM [1] was 7 MEQ/L, the SODIUM [1] was 140.33 MEQ/L and the “TOTAL BILIRUBIN” value [1] was 0.48 mg/dL. For the same molecule, the “TOTAL PROTEIN” value [1] was 6.8 G/DL, the BASOPHIL [2] was 1.47% and the EOSINOPHIL [2] was 1%. The “ERYTHROCYTE COUNT” value [2] was 7.12 x10E6/uL, the HEMATOCRIT [2] was 45.47% and the HEMOGLOBIN [2] was 14.1 G/DL. For the same molecule, the “LEUKOCYTE COUNT” value [2] was 11.38 x10E3/uL, the LYMPHOCYTE [2] was 82.57% and the “MEAN CORPUSCULAR HEMOGLOBIN” value [2] was 19.82 pg. For the same molecule, the “MEAN CORPUSCULAR HEMOGLOBIN CONCENTRATION” value [2] was 31.02 G/DL, the “MEAN CORPUSCULAR VOLUME” value [2] was 63.88 fL and the MONOCYTE [2] was 2.2%. For the same molecule, the NEUTROPHIL [2] was 11.97%, the “PLATELET COUNT” value [2] was 1267 x10E3/uL and the “ALANINE AMINOTRANSFERASE” value [2] was 38 u/L. The ALBUMIN [2] was 3.72 G/DL, the “ALKALINE PHOSPHATASE” value [2] was 391 u/L and the “ASPARTATE AMINOTRANSFERASE” value [2] was 65.83 u/L. For the same molecule, the “BLOOD UREA NITROGEN” value [2] was 14.17 mg/dL, the CHLORIDE [2] was 107.67 MEQ/L and the CHOLESTEROL [2] was 61 mg/dL. The “CREATINE PHOSPHOKINASE” value [2] was 148.33 u/L, the CREATININE [2] was 0.57 mg/dL and the GLUCOSE [2] was 177.17 mg/dL. The PHOSPHORUS [2] was 12.07 mg/dL, the POTASSIUM [2] was 7.2 MEQ/L and the SODIUM [2] was 151.5 MEQ/L. The “TOTAL BILIRUBIN” value [2] was 0.58 mg/dL, the “TOTAL PROTEIN” value [2] was 6.72 G/DL and the BASOPHIL [3] was 0.53%. The EOSINOPHIL [3] was 0.4%, the “ERYTHROCYTE COUNT” value [3] was 6.91 x10E6/uL and the HEMATOCRIT [3] was 43%. The HEMOGLOBIN [3] was 13.7 G/DL, the “LEUKOCYTE COUNT” value [3] was 11.32 x10E3/uL and the LYMPHOCYTE [3] was 84.1%. For the same molecule, the “MEAN CORPUSCULAR HEMOGLOBIN” value [3] was 19.8 pg, the “MEAN CORPUSCULAR HEMOGLOBIN CONCENTRATION” value [3] was 31.87 G/DL and the “MEAN CORPUSCULAR VOLUME” value [3] was 62.2 fL. The MONOCYTE [3] was 2.17%, the NEUTROPHIL [3] was 11.67% and the “PLATELET COUNT” value [3] was 1322.33 x10E3/uL. For the same molecule, the “ALANINE AMINOTRANSFERASE” value [3] was 35 u/L, the ALBUMIN [3] was 3.63 G/DL and the “ALKALINE PHOSPHATASE” value [3] was 309 u/L. For the same molecule, the “ASPARTATE AMINOTRANSFERASE” value [3] was 58.33 u/L, the “BLOOD UREA NITROGEN” value [3] was 13 mg/dL and the CHLORIDE [3] was 95.33 MEQ/L. For the same molecule, the CHOLESTEROL [3] was 78.33 mg/dL, the “CREATINE PHOSPHOKINASE” value [3] was 150 u/L and the CREATININE [3] was 0.47 mg/dL. The GLUCOSE [3] was 190 mg/dL, the PHOSPHORUS [3] was 11.8 mg/dL and the POTASSIUM [3] was 6.2 MEQ/L. For the same molecule, the SODIUM [3] was 139 MEQ/L, the “TOTAL BILIRUBIN” value [3] was 0.2 mg/dL and the “TOTAL PROTEIN” value [3] was 6.43 G/DL. For the same molecule, the BASOPHIL [4] was 1.7%, the EOSINOPHIL [4] was 5.9% and the “ERYTHROCYTE COUNT” value [4] was 7.33 x10E6/uL. For the same molecule, the HEMATOCRIT [4] was 45.75%, the HEMOGLOBIN [4] was 14.55 G/DL and the “LEUKOCYTE COUNT” value [4] was 9.46 x10E3/uL. The LYMPHOCYTE [4] was 42.8%, the “MEAN CORPUSCULAR HEMOGLOBIN” value [4] was 19.85 pg and the “MEAN CORPUSCULAR HEMOGLOBIN CONCENTRATION” value [4] was 31.85 G/DL. The “MEAN CORPUSCULAR VOLUME” value [4] was 62.35 fL, the MONOCYTE [4] was 1.7% and the NEUTROPHIL [4] was 47.25%. For the same molecule, the “PLATELET COUNT” value [4] was 1408 x10E3/uL, the “ALANINE AMINOTRANSFERASE” value [4] was 30.33 u/L and the ALBUMIN [4] was 3.67 G/DL. For the same molecule, the “ALKALINE PHOSPHATASE” value [4] was 296.33 u/L, the “ASPARTATE AMINOTRANSFERASE” value [4] was 52.67 u/L and the “BLOOD UREA NITROGEN” value [4] was 12.67 mg/dL. For the same molecule, the CHLORIDE [4] was 104 MEQ/L, the CHOLESTEROL [4] was 61 mg/dL and the “CREATINE PHOSPHOKINASE” value [4] was 128.67 u/L. It also gave a CREATININE [4] of 0.43 mg/dL, a GLUCOSE [4] of 196 mg/dL and a PHOSPHORUS [4] of 12.73 mg/dL. The POTASSIUM [4] was 7.17 MEQ/L, the SODIUM [4] was 149.67 MEQ/L and the “TOTAL BILIRUBIN” value [4] was 0.43 mg/dL. The “TOTAL PROTEIN” value [4] was 6.7 G/DL.
